Results reported in patent publication US11419881B2, “Treatment of migraine” (priority 2019, dated 2022).
Where two headings read alike, the source gives them in different places.

Legend:
[1] = tested on: isolated human nasal chemosensory neurons; assay: Electrophysiology: inward currents in isolated human nasal chemosensory neurons; format: cell-based
[2] = tested on: nasal septal chemosensory mucosa; assay: Electrophysiology: depolarization of the nasal septal chemosensory mucosa; parameters: species or system human
estrogen receptors = assay: In vitro agonist/antagonist activity on estrogen receptors; format: biochemical
androgen receptors = molecular target: T1, androgen receptors (Homo sapiens, UniProt P10275); assay: In vitro agonist/antagonist activity on androgen receptors; format: biochemical
T1 sequence (P10275 1-920): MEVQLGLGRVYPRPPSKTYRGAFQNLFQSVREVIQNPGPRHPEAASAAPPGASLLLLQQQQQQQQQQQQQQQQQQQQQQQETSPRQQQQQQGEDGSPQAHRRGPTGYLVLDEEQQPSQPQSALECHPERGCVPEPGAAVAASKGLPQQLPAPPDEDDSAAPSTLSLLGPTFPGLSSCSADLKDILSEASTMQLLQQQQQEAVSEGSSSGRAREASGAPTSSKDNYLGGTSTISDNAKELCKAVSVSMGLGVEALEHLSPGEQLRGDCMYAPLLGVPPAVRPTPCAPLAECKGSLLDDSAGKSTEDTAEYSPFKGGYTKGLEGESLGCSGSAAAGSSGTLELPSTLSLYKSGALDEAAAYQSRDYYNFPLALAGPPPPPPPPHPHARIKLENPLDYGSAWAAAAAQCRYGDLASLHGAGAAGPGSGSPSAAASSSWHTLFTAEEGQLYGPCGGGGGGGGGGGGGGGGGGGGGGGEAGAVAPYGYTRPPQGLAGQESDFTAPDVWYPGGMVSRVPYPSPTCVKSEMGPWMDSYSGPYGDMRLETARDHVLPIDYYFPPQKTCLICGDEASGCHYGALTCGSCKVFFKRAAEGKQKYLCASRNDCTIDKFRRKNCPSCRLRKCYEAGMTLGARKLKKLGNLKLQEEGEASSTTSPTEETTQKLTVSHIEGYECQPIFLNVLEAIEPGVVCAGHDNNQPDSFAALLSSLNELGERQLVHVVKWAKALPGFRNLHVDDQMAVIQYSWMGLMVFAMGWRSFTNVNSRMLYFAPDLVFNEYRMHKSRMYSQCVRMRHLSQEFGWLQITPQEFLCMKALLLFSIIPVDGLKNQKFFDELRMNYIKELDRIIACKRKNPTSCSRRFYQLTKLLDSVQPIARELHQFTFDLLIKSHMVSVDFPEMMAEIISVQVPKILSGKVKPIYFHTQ

progestin receptors = molecular target: T2, progestin receptors (Homo sapiens, UniProt P06401); assay: In vitro agonist/antagonist activity on progestin receptors; format: biochemical
T2 sequence (P06401 1-933): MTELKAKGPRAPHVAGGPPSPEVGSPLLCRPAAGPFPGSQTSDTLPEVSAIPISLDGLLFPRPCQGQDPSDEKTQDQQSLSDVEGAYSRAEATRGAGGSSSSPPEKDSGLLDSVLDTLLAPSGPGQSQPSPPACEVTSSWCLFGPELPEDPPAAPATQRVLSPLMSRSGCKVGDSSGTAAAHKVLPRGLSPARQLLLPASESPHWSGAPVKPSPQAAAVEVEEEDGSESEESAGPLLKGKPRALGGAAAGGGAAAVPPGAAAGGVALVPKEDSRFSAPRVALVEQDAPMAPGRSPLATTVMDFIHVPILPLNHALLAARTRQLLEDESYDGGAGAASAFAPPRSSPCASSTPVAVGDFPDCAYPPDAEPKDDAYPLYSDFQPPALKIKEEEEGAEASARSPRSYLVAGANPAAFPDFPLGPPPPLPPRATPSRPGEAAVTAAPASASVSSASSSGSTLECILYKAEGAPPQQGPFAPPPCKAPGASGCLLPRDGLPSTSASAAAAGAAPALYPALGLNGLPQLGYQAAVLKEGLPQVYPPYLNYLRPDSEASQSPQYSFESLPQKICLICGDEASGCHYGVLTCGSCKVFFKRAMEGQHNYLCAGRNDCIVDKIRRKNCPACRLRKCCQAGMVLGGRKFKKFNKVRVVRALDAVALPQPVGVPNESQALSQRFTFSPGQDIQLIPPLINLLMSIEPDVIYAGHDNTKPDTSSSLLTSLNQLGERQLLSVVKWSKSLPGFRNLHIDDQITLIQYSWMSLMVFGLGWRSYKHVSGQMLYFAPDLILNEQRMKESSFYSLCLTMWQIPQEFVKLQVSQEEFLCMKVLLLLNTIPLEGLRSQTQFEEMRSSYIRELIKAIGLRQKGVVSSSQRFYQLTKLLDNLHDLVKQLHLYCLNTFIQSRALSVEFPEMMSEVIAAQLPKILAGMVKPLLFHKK

glucocorticoid receptors = molecular target: T3, glucocorticoid receptors (Homo sapiens, UniProt P04150); assay: In vitro agonist/antagonist activity on glucocorticoid receptors; format: biochemical
T3 sequence (P04150 1-777): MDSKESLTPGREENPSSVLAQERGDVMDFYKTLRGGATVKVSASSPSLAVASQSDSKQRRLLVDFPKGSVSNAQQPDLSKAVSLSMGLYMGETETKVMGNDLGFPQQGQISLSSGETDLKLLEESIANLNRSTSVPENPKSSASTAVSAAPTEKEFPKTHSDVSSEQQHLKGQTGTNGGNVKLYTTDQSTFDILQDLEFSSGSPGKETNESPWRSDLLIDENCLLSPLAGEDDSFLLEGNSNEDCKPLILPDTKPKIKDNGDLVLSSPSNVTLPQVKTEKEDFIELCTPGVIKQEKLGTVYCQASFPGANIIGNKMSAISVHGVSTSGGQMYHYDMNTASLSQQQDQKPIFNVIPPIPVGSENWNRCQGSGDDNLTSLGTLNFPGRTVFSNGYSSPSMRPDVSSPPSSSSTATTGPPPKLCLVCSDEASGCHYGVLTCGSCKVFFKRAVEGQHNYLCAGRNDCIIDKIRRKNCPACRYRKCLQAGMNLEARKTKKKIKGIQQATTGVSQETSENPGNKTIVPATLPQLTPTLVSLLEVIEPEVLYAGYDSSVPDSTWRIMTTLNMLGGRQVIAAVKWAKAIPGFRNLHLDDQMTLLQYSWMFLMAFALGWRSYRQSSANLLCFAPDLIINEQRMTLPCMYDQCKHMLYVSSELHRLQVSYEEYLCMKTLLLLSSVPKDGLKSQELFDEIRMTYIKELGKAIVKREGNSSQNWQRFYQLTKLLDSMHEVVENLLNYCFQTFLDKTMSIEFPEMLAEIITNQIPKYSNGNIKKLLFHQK

[3] = Acute and multidose (28 day) toxicity studies, nasal and intravenous; format: in vivo, rats, mice, rabbits and dogs
[4] = Ames reverse mutation assay
[5] = In vivo bone marrow micronucleus test
[6] = Reproductive toxicity studies in pregnant rabbits; format: in vivo; conditions: intravenous up to 2.5 mg/kg/day during organogenesis
[7] = Preclinical pharmacokinetic studies, nasal doses; format: in vivo; conditions: repeated or single escalating nasal doses up to 100 μg/rat, 400 μg/rabbit, 600 μg/dog
[8] = Preclinical pharmacokinetic studies, intravenous doses; format: in vivo, rats, rabbits, or dogs; conditions: single repeated intravenous doses up to 2.5 mg/kg
[9] = tested on: nasal chemosensory mucosa; assay: Electrogram from the nasal chemosensory mucosa of human volunteers; format: in vivo
Description: (§1) The half effective dose of this effect was 0.087 μg.

[10] = Reflex (autonomic) activity after nasal administration in human volunteers; format: in vivo; conditions: nasal 1.6 μg
Description: as §1

[11] = Nasal spray 0.5 μg versus vehicle in 14 women of reproductive age, physiologic parameters; format: in vivo, human; conditions: compared to vehicle
[12] = Nasal spray 1.6 μg in women of reproductive age, core body temperature and sympathoadrenergic tone; format: in vivo, human
Description: It also changed the tone of the sympathoadrenergic system (as assessed by measuring physiologic sinus arrhythmia) within 5 minutes of administration, and the effect persisted for 15 to 20 minutes.

[13] = format: in vivo, human
[14] = Hot flashes in menopausal women after nasal administration; format: in vivo, human
Text: 16α,17α-Epoxy-10β-hydroxyestr-4-en-3-one decreased parasympathetic system tone resulting in increased sympathetic activity and stimulation of β2 adrenergic receptors in the bronchiole smooth muscle that induced bronchodilation; (b) increased skin conductance amplitude is the result of increased skin secretions, which are produced by preponderance of the sympathetic nervous system tone (or decreased parasympathetic tone); (c) decreased body temperature is explained by increased activity of the posterior (adrenergic) hypothalamus and decreased parasympathetic tone (anterior hypothalamus).

[15] = in vivo
[16] = Exploratory single-blind study in chronic migraine subjects (HAM-A, HAM-D, VRS, resting state fMRI)
[17] = after single dose nasal administration
[18] = women with PMDD, nasal, versus placebo
[19] = migraine subjects, 6.4 μg nasal, relative to placebo

C[C@]12CC[C@H]3[C@@H](CCC4=CC(=O)CC[C@@]43O)[C@@H]1C[C@H]1O[C@H]12 [16α,17α-epoxy-10β-hydroxyestr-4-en-3-one]
inward currents in isolated human nasal chemosensory neurons ([1]; isolated neurons): induced inward currents
concentration giving maximal response (amplitude) ([1]; response amplitude increased with concentration): 10^−7 to 10^−6 M
depolarization of the nasal septal chemosensory mucosa [2]: electrotonic depolarization
agonist or antagonist activity on estrogen receptors (estrogen receptors): no agonist or antagonist activity
agonist or antagonist activity on androgen receptors (androgen receptors): no agonist or antagonist activity
agonist or antagonist activity on progestin receptors (progestin receptors): no agonist or antagonist activity
agonist or antagonist activity on glucocorticoid receptors (glucocorticoid receptors): no agonist or antagonist activity
deaths, adverse clinical signs, effects on laboratory or pathology parameters ([3]; same nasal and intravenous doses, all species): no deaths or adverse clinical signs or effects on laboratory or pathology parameters observed
tolerability ([3]; single nasal up to 100 μg/rat, 400 μg/rabbit, 600 μg/dog, repeated nasal up to 50 μg/rat/day, 300 μg/dog/day, iv single and repeated up to 2.5 mg/kg, 28 day): well tolerated in all species tested
mutagenic or clastogenic potential [4]: no evidence of mutagenic or clastogenic potential
mutagenic or clastogenic potential [5]: no evidence of mutagenic or clastogenic potential
effects on maternal or litter parameters [6]: no adverse effects on maternal or litter parameters
systemic exposure [7]: very low systemic exposure
plasma concentrations, dose dependence [8]: dose-proportional
plasma concentrations, time course [8]: decreased rapidly
half effective dose of electrogram activation ([9]; human volunteers of both sexes): 0.087 µg
activation of the electrogram recorded from the nasal chemosensory mucosa ([9]; microgram quantities, volunteers of both sexes): concentration dependent activation
body core temperature (external ear canal) [10]: decreased body core temperature
cardiac rate [10]: no significant change
depth of the inspiratory cycle of respiration [10]: significantly increased amplitude
latency of modulation of reflex activity after the electrogram [10]: 5 to 10 s
skeletal muscle tone (electromyogram, chin muscles) [10]: decreased skeletal muscle tone
skin conductance (electrodermal activity) ([10]; palmar surface of fourth and fifth finger): increased amplitude of the skin conductance
respiration rate ([10]; within physiologic range): decreased respiration rate
cardiac frequency [11]: not statistically significant increase
core body temperature [11]: statistically significant decreases
galvanic skin reflex [11]: statistically significant decreases
respiratory frequency [11]: statistically significant decreases
skeletal muscle tone [11]: statistically significant decreases
decrease in core body temperature [12]: 1±0.23 °C
latency of decrease in core body temperature [12]: 0.5 to 4 min
persistence of change of sympathoadrenergic tone [12]: 15 to 20 min
persistence of decrease in core body temperature [12]: 9 ± 2.5 min
time to change of sympathoadrenergic tone (physiologic sinus arrhythmia) [12]: ≤ 5 minutes
persistence of improvements [13, 17]: approximately 5 hours
time to appearance of improvements [13, 17]: ≤ 30 min
serious adverse events ([13]; in vivo): No serious adverse events were reported
side effects ([13]; in vivo): minimal and similar to administration of placebo
cortical behavioral symptoms (headache, tension) [13, 18]: significant improvements
hypothalamic behavioral symptoms (fatigue, anger, craving for foods) [13, 18]: significant improvements
limbic system behavioral symptoms (mood swings, depression, lack of interest) [13, 18]: significant improvements
number, severity and bother of hot flashes [14]: decreased number, severity and bother of hot flashes
systemic exposure [15]: lack of systemic exposure
functional connectivity of the amygdala with the anterior occipital lobe and right middle occipital lobe (fMRI) [16, 19]: increased functional connectivity
functional connectivity of the hypothalamus with the anterior orbital gyrus, right medial orbital gyrus and pons (fMRI) [16, 19]: decreased functional connectivity
functional connectivity of the right thalamus with left orbitofrontal cortex, superior parietal lobe, left insular cortex and left primary motor cortex (fMRI) [16, 19]: decreased functional connectivity
functional connectivity of the right thalamus with the left somatosensory cortex (fMRI) [16, 19]: increased functional connectivity
tolerability ([16]; single nasal 6.4 μg, all three subjects): tolerated
mean decrease in headache pain intensity score (VRS, 6-point) relative to placebo ([16]; two migraine subjects, single nasal 6.4 μg, 15 minutes, p<0.01): 2.5
anxiety scores (HAM-A) ([16]; two migraine subjects, single nasal 6.4 μg, p<0.01): significantly improved
depression scores (HAM-D) ([16]; two migraine subjects, single nasal 6.4 μg, not statistically significant): improvement trend
